{"source": "patent US8404655B2", "about": "“Inhibition of palmitoyl acyl transferase expression and/or activity for the regulation of antiproliferative factor activity” (University of Florida Research Foundation, Inc., priority 2007, dated 2013)", "key": {"[1]": {"system": "HeLa cells", "assay": "3H-thymidine incorporation (cell proliferation), HeLa cells", "type": "cell-based, human", "details": "APF 0.25-250 nM, 48 hours, serum starvation", "procedure": "Cell proliferation was measured by 3H-thymidine incorporation into ZDHHC2 siRNA-treated HeLa cells. Briefly, electroporated cells that received ZDHHC2 or control nonsense siRNA were plated into 96 well culture plates and incubated at 37° C. in a 5% CO2 atmosphere for 96 hours. Purified lyophilized synthetic APF was re-suspended in acetonitrile/distilled water (1:1), diluted in serum-free MEM (containing only glutamine and antibiotics/antimycotics), and applied to HeLa cells; cell controls received acetonitrile/distilled water diluted in serum-free MEM alone. Cells were then incubated for an additional 48 hours. The cell contents were harvested and methanol-fixed onto glass fiber filter paper, and the amount of radioactivity incorporated determined. Significant inhibition of ^3H-thymidine incorporation was defined as a mean decrease in counts per minute of greater than 2 standard deviations from the mean of control cells for each plate.\nsiRNA—Double-stranded siRNA targeting ZDHHC2 (available from GenBank/EMBL/DDBJ under accession no. NM_016353) was purchased from Dharmacon (ON-TARGET plus). […]\n^3H-Thymidine Incorporation—Cell proliferation was measured by 3H-thymidine incorporation into the DNA of HeLa or NB epithelial cells. […] The cell contents were harvested and methanol-fixed onto glass fiber filter paper, and the amount of radioactivity incorporated determined. […]"}, "[2]": {"system": "CKAP4/p63", "assay": "Immunofluorescent localization of CKAP4/p63 in HeLa cells", "type": "cell-based, human", "details": "APF 20 nM, 48 hours", "procedure": "Double stranded siRNA targeting ZDHHC2 was purchased from Dharmacon. HeLa cells or cells explanted from IC patients (IC cells) were trypsinized for 10 minutes at room temperature, centrifuged in growth medium (MEM with 10% heat inactivated FBS, 1% antibiotic/antimycotics solution, and 1% L glutamine), and the cell pellet was resuspended in serum-free medium at a density of 1×10^4 cells/ml. One mL of the cell suspension was then transferred to a sterile 2 mm cuvette with 20 μM siRNA, and electroporated at 160 V/500 μF capacitance using a BioRad Gene Pulser Xcell. HeLa cells were then plated onto a 96 well plate for the thymidine incorporation assay, and both HeLa and IC cells were plated onto an 8 well Lab-Tek tissue culture slide for confocal microscopy.\nFor confocal microscopy, after 96 hours of incubation the medium was removed from the wells and cells were fixed using ethanol/acetone (1:1) for 15 min at room temperature, washed three times with 1×PBS, and incubated with mouse monoclonal anti-CKAP4/p63 antibodies (“anti-CLIMP-63”, clone G1/296; Alexis Biochemicals) in PBS, for 2 hrs at 37° C. Cells were then washed three times with PBS and further incubated with fluorescein isothiocyanate (FITC)-labeled secondary antibody diluted in PBS (goat anti-Mouse IgG 1:2000; Zymed) for 2 hrs at 37° C. […]"}, "[3]": {"system": "normal primary bladder (NB) epithelial cells", "assay": "3H-thymidine incorporation (cell proliferation), NB epithelial cells", "type": "cell-based, human", "details": "APF 0.25-250 nM, 48 hours, serum starvation", "procedure": "Normal primary bladder (NB) epithelial cells were isolated from patients as previously described (Conrads et al., 2006; Keay et al., 2000; Keay et al., 2004; Keay et al., 1996). Cells were propagated in DMEM-F12 (Media-Tech) with 10% heat inactivated FBS, 1% antibiotic/antimycotic solution, 1% L-glutamine, 0.25 U/ml insulin (Sigma), and 5 ng/ml human epidermal growth factor (R & D Systems) at 37° C. in a 5% CO2 atmosphere, and characterized by binding of AE-1/AE-3 pancytokeratin antibodies (Signet) as previously described (Keay et al., 1996; Keay et al., 2004).\n^3H-Thymidine Incorporation—Cell proliferation was measured by 3H-thymidine incorporation into the DNA of HeLa or NB epithelial cells. […] Cells were then incubated at 37° C. in a 5% CO2 atmosphere for 48 hours. The cell contents were harvested and methanol-fixed onto glass fiber filter paper, and the amount of radioactivity incorporated determined. Significant inhibition of ^3H-thymidine incorporation was defined as a mean decrease in counts per minute of greater than 2 standard deviations from the mean of control cells for each plate."}, "[4]": {"system": "E-cadherin mRNA", "assay": "Quantitative real-time PCR of E-cadherin mRNA in NB cells", "type": "cell-based, human", "details": "2.5 nM APF alone or with nonsense siRNA, 48 hours", "procedure": "(§1) RNA was assessed by visualization of the 28S/18S ribosomal RNA ratio on a 1% agarose gel, and total RNA concentration determined by measuring the absorbance of each sample at 260 nm and 280 nm using a Gene Quant RNA/DNA Calculator (Pharmacia Biotech). Quantitative real-time PCR for gene expression was performed using Quantitect Primers (Qiagen), SYBR Green RT-PCR kit reagents (Qiagen), and a Roche System II Light-Cycler (software version 3.5). Samples were tested in triplicate runs, and specific mRNA levels quantified and compared to mRNA levels for β-actin using real-time PCR analysis software from Applied Biosystems."}, "[5]": {"system": "vimentin mRNA", "assay": "Quantitative real-time PCR of vimentin mRNA in NB cells", "type": "cell-based, human", "details": "2.5 nM APF alone or with nonsense siRNA, 48 hours, normalized to β-actin", "procedure": "as §1"}, "[6]": {"system": "bladder epithelial cell", "details": "cited from earlier work"}, "[7]": {"system": "ZO-1 mRNA", "assay": "Quantitative real-time PCR of ZO-1 mRNA in NB cells", "type": "cell-based, human", "details": "2.5 nM APF alone or with nonsense siRNA, 48 hours, normalized to β-actin", "procedure": "as §1"}, "[8]": {"system": "vimentin", "assay": "Western blot of vimentin protein in HeLa cells", "type": "cell-based, human", "details": "APF 20 nM, 48 hours", "procedure": "Western Blot Analysis—Cells were lysed in ice-cold RIPA buffer containing protease inhibitors (Pierce), sonicated, and centrifuged for 15 minutes at 4° C. The supernatant protein concentration was measured using a Folin reagent-based protein assay kit (BioRad). Proteins were separated by electrophoresis using 4-12% NuPAGE Novex Bis-Tris polyacrylamide gels in MOPS running buffer (Invitrogen) and then transferred to nitrocellulose. Membranes were blocked for 2 hours at room temperature in TBST buffer (Tris-buffered saline, pH 7.4, with 0.1% Tween 20) containing 5% nonfat milk and incubated with specific antibodies against vimentin (diluted 1:2000; BD Pharmingen) or ZO-1 (diluted 1:125; Zymed) overnight at 4° C. The membranes were subsequently washed with TBST, incubated for 1 hour at room temperature in HRP-conjugated goat anti-mouse (diluted 1:4000, Santa Cruz Biotechnology) or goat anti-rabbit (diluted 1:10000; Pierce) secondary antibodies, and developed by enhanced chemiluminescence (Pierce). To assess equal loading of protein, the membranes were stripped and reprobed for β-actin (diluted 1:5000; Sigma). […] The protein bands of interest were quantified using ImageJ and the integrated signal densities normalized first to β-actin (the loading control) and subsequently expressed in terms of the fractional abundance relative to untreated control cells."}}, "data": [{"substance": "Sialoglycopeptide: sialic acid α-2,3 galactose β1-3-N-acetylgalactosamine α-O-linked to N-terminal threonine of Frizzled 8 nonapeptide (TVPAAVVVA) [APF, antiproliferative factor]", "values": [{"measurement": "inhibition of HeLa cell proliferation (3H-thymidine incorporation)", "setting": "[1]", "value": "concentration dependent manner"}, {"measurement": "CKAP4 localization after APF treatment", "setting": "[2]", "value": "translocated to the nucleus and nucleolus"}, {"measurement": "inhibition of NB cell proliferation (3H-thymidine incorporation)", "setting": "[3]", "value": "concentration dependent manner"}, {"measurement": "change of E-cadherin mRNA levels", "setting": "[4]", "value": "dramatically increased"}, {"measurement": "reduction of vimentin mRNA levels", "setting": "[5]", "value": "~97", "unit": "%"}, {"measurement": "EC50 (potency of APF)", "setting": "[6]", "value": "picomolar range"}, {"measurement": "reduction of ZO-1 mRNA levels", "setting": "[7]", "value": "~93", "unit": "%"}, {"measurement": "expression of vimentin following APF treatment", "setting": "[8]", "value": "reduced"}]}]}
